pEC50, pIC50: −log10 of the molar value.
Experiments:
[1] = biological target: C-terminal domain (CTD) of human STING (Homo sapiens, UniProt Q86WV6); assay: STING binding FP assay II; design: recombinant human STING protein (155-379); settings: 7 nM STING
STING [2] = biological target: STING (Homo sapiens, UniProt Q86WV6); assay: Inhibition of STING-agonist-induced IFN-β release in HFF-1 cells (HFF-1 STING inhibition assay); format: cell-based; design: host or cells: HFF-1 human foreskin fibroblasts; settings: 24h with compound, then 0.3 µM diABZI c3, 6h; ELISA
STING (Homo sapiens, UniProt Q86WV6), sequence (Q86WV6 whole entry): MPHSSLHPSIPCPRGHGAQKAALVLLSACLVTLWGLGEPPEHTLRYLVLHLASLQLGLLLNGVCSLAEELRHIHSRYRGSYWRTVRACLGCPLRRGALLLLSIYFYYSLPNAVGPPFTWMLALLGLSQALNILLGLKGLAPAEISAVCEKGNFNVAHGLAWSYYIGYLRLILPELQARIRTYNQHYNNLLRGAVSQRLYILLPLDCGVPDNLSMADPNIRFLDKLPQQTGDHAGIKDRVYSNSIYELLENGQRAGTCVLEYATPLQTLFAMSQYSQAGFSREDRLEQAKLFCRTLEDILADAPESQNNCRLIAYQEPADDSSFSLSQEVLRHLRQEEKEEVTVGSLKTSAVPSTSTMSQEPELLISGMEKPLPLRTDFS
Protocol: To evaluate cellular effects of test compounds, we assessed inhibition of STING-agonist-induced IFN-β release in human foreskin fibroblasts HFF-1 cells (ATCC, SCRC-1041). Cells were seeded at a density of 10.000 cells/well in 96-well Nunclon Delta surface treated culture plate in DMEM growth medium (supplemented with 10% FBS, 1% Pen-strep). Cells were incubated over-night at 37°C 5% CO2 to allow adhesion. Next morning growth medium was renewed and a 7x concentration 3-step dilution series of test compounds (2,1% DMSO) diluted in growth medium were added to the appropriate well. Final DMSO concentration was 0.3%. […] Cells culture plates were further incubated, and supernatants were harvested after 6h and immediately stored at -20°C until determination of IFN-β release. Cell supernatants were analysed for IFN-β release using DuoSet human IFN-β ELISA (R&D systems, DY-814) following manufactures protocol except using 96-well, half-volume plates from Corning and subsequently use half volume for all steps throughout the protocol. In brief, plates were coated o/n with a 130x dilution of capturing antibody in PBS. Wells were washed 3x with PBS-T20 followed by blocking with 1% BSA diluted in TBS-T20 for 1h. […] Wells were washed 3x with PBS-T20 and detection antibody diluted 1:60 in 1% BSA in PBS was added to each well and incubated for 2h at rt. […]

STING [3] = biological target: T1, STING (Mus musculus, UniProt Q3TBT3); assay: Western Blot analysis for STING degradation in mouse RAW264.7 cells; format: cell-based; design: endogenous in cells; host or cells: RAW264.7 mouse cells; settings: 19.5nM to 10 µM, 24 hours
T1 sequence (Q3TBT3 1-378): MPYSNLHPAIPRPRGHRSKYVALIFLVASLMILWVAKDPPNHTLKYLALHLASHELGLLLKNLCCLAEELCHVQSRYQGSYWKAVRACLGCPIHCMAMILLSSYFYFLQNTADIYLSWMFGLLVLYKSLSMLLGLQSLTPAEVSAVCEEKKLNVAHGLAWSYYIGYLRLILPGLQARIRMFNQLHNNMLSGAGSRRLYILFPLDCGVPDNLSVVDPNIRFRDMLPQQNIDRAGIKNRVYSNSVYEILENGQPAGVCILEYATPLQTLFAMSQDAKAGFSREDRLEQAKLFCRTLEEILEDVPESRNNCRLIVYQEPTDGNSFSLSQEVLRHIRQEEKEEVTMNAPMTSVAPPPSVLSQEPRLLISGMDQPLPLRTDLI
Protocol: To assess STING degradation in RAW264.7 cells, cells were seeded at a density of 60.000 cells/well in 24-well Nunclon Delta surface treated culture plate in RPMI-1640 growth medium (supplemented with 10% FBS, 1% Pen-strep). Cells were incubated over-night at 37°C 5% CO2 to allow adhesion. Next day growth medium was renewed and a 5x concentration of test compounds (2.5% DMSO) diluted in growth medium were added to the appropriate well. Final DMSO concentration was 0.5%. Cells were treated with a titration of test compound from 19.5nM to 10 µM 24 hours prior to cells lysis and subsequently analyzed by WB using anti-STING (1:1000) and anti-VCL (1:1000) antibodies. Controls included UT (DMSO) and 1.8µM diABZI treated cells.
For cell lysis, western blotting and data analysis, the methods described above for HFF-1 cells were applied.

C-terminal domain (CTD) of human STING, sequence (Q86WV6 155-379): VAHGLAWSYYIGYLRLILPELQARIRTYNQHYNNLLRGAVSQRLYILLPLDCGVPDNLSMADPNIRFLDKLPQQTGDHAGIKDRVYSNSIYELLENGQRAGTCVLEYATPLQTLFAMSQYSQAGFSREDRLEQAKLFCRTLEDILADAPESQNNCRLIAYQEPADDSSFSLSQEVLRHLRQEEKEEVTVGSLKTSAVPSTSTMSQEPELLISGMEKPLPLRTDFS

Row | SMILES | pIC50 [1] | pEC50 (STING [2]) | STING degradation (Western Blot, Figure 2) (STING [3])
1 | CCn1nc(C)cc1C(=O)N=c1n(C)c2cc(C(N)=O)ccc2n1CCC(CCn1c(=NC(=O)c2cc(C)nn2CC)n(C)c2cc(C(N)=O)ccc21)OCC(=O)NCCOCCOCCOCCOCCC(=O)NCCOCCOCCOCCOCC(=O)N[C@H](C(=O)N1C[C@H](O)C[C@H]1C(=O)NCc1ccc(-c2scnc2C)cc1)C(C)(C)C (stereo partly drawn) [Example 14] | 8.24 | 5.30 to 6.00 | dose-dependent STING degradation
2 | CCn1nc(C)cc1C(=O)N=c1n(C)c2cc(C(N)=O)ccc2n1CCC(CCn1c(=NC(=O)c2cc(C)nn2CC)n(C)c2cc(C(N)=O)ccc21)OCC(=O)NCCOCCOCCOCCOCCC(=O)NCCOCCOCCOCCOCCNc1cccc2c1C(=O)N(C1CCC(=O)NC1=O)C2=O (stereo not drawn) [Example 16] | 8.35 | > 6.70 | dose-dependent STING degradation

From patent publication EP4663632A1, “COMPOUNDS USEFUL FOR THE MODULATION OF THE ACTIVITY OF STING” (Sulis Therapeutics ApS, priority 2024, dated 2025)
